For one assay, the target named is T1, Keap1/NRF2 (Homo sapiens, UniProt Q14145).
T1 construct: Keap1 (321-609) is diluted to 40 nM (2×) in 1× assay buffer
In words: NRF2-Keap1 FP Assay (Kelch domain (321-609) of Keap1, TAMRA-labeled NRF2 ETGE peptide). The conditions noted are these: Keap1 (321-609) 20 nM, Tamra labeled peptide 8 nM. It is filed as binding. From the text: One model for the NRF2-Keap1 interaction is through two binding sites in the Neh2 domain on NRF2. The two sites are referred to as the DLG binding motif (latch domain, uM affinity) and the ETGE binding motif (hinge domain, nM affinity). The Keap1 protein consists of an N-terminal region (NTR), a broad complex, tramtrack, and brick a′ brac domain (BTB), an intervening region (IVR), a double glycine repeat domain (DGR or Kelch), and a C-terminal region. The DLG and ETGE motifs of NRF2's Neh2 domain bind to the Kelch domain of Keap1 at different affinities. In the Keap1 Kelch fluorescence polarization (FP) assay, a TAMRA-labeled 16 mer peptide (AFFAQLQLDEETGEFL) containing the ETGE motif of NRF2 and the Kelch domain (321-609) of Keap1 is used. The assay determines if a compound interferes with the binding between Keap1 […] and the TAMRA-labeled peptide. Binding of TAMRA-labeled NRF2 peptide to Keap1 (321-609) results in a high FP signal. If a compound interferes with the binding between the peptide and the protein, it will cause the assay signal to decrease. Thus, assay signal is inversely proportional to binding inhibition.
100 nl of 100× compound dose response curves (serial 3-fold dilutions) in DMSO are stamped using an Echo liquid handling system (Labcyte) into 384-well low volume black assay plates (Greiner, #784076), with DMSO in columns 6 and 18. The top concentration of compound is located in columns 1 and 13. Keap1 (321-609) is diluted to 40 nM (2×) in 1× assay buffer (50 mM Tris, pH 8.0, 100 mM NaCl, 5 mM MgCl2, 1 mM DTT, 2 mM CHAPS, and 0.005% BSA) and 5 ul is added using a Multidrop Combi (Thermo Electron Corporation) equipped with a metal tip dispenser to all wells of the compound plate, except column 18. Column 18 receives only 5 ul of assay buffer. Immediately, 5 uL of 16 nM (2×) of Tamra labeled peptide (AFFAQLQLDEETGEFL, 21st Century Biochemicals) is added to all wells of the plate. The plates are spun at 500 rpm for 1 min, incubated for 1 hr at room temperature, and read on an Analyst GT (Molecular Devices) equipped with excitation (530/25 nm) and emission (580/10 nm) filters designed for Tamra probes. A 561 nm dichroic mirror is also used in the Analyst. The final assay concentrations of Keap1 (321-609) and Tamra labeled peptide are 20 nM and 8 nM, respectively. Fluorescence measurements, represented as mP, are used in the transformation of the data. Compound activity is calculated based on percent inhibition, normalized against controls in the assay (Control 1 contains the Tamra peptide and Keap1 (321-609) together (0% response) and control 2 contains the Tamra peptide alone (100% response)). Data analysis is handled using the software package Abase XE (Surrey, United Kingdom. The % inhibition values are calculated by the equation: 100−(100*((compound response-average control 2)/(average control 1−average control 2))). For calculation of pIC50s, Abase XE uses a four parameter equation.

Assay [1] relates to NQO1 specific enzyme activity in BEAS-2B cells. In words: BEAS-2B NQO1 MTT Assay. It is filed as cell-based. Particulars: Homo sapiens, BEAS-2B, 48 h, NQO1 specific activity induction. An excerpt:
NAD(P)H:quinone oxidoreductase 1 (NQO1), also called DT diaphorase, is a homodimeric FAD-containing enzyme that catalyzes obligatory NAD(P)H-dependent two-electron reductions of quinones and protects cells against the toxic and neoplastic effects of free radicals and reactive oxygen species arising from one-electron reductions. The transcription of NQO1 is finely regulated by NRF2, and thus NQO1 activity is a good marker for NRF2 activation. On day one, frozen BEAS-2B cells (ATCC) are thawed in a water bath, counted, and re-suspended at a concentration of 250,000 cells/mL. Fifty microliters of cells are plated in 384 well black clear-bottomed plates. Plates are incubated at 37° C., 5% CO2 overnight. On day two, plates are centrifuged and 50 nL of compound or controls are added to the cells. Plates are then incubated at 37° C., 5% CO2 for 48 hours. On day four, medium is aspirated from the plate and crude cell lysates are made by adding 13 uL of 1× Cell Signaling Technologies lysis buffer with 1 Complete, Mini, EDTA-free Protease Inhibitor Tablet (Roche) for each 10 mL of lysis buffer. After lysis plates are incubated for 20 minutes at room temperature. Two microliters of lysate are removed for use in Cell Titer Glo assay (Promega) and MTT cocktail is prepared (Prochaska et. al. 1998) for measurement of NQO1 activity. Fifty microliters of MTT cocktail is added to each well, plate is centrifuged, and analyzed on an Envision plate reader (Perkin Elmer) using Absorbance 570 nm label for 30 minutes. Product formation is measured kinetically and the pEC50 of NQO1 specific activity induction is calculated by plotting the change in absorbance (Delta OD/min) versus the log of compound concentration followed by 3-parameter fitting.

The target of the next assay is T2, NRF2/Keap1 (Homo sapiens, UniProt Q14145).
T2 construct: full length NRF2 protein and full length Keap1 protein (Keap1 exists a dimer) are used
The assay can be described thus: NRF2-Keap1 TR-FRET Low Protein Assay (full length NRF2 and full length Keap1). It is filed as binding. The conditions noted are these: low protein: 1.25 nM Keap1 FlagHis, 2.5 nM biotin-NRF2 added. An excerpt: In the NRF2-Keap1 TR-FRET (time-resolved fluorescence resonance energy transfer) low protein assay, full length NRF2 protein and full length Keap1 protein (Keap1 exists a dimer) are used. The assay detects a compound's ability to displace the binding of Keap1 FlagHis with biotinylated Avi-NRF2 protein. Biotin-NRF2 binds to streptavidin-europium (a component of the detection mix) and Keap1 FlagHis is recognized by anti-Flag APC (allophycocyanin) antibody (also a component of the detection mix). If binding occurs between the two proteins, there will be an energy transfer from the Eu+3 (donor) at 615 nm to the APC (acceptor) at 665 nm. A potential NRF2 inhibitor will cause a reduction in the TR-FRET signal by interfering with the binding of Keap1 to NRF2.
Ten nanoliters of 100× compound dose response curves (serial 3-fold dilutions) in DMSO are stamped using an Echo liquid handling system (Labcyte) into 384-well, low volume, black assay plates (Greiner, #784076), with DMSO in columns 6 and 18. An additional 90 nl DMSO is added to each well, to bring the total volume to 100 nl per well. The top concentration of compound is located in columns 1 and 13, with the serial dilutions going across the row. All reagents are diluted in assay buffer (50 mM Tris, pH 8.0, 5 mM MgCl2, 100 mM NaCl, 0.005% BSA, 1 mM DTT, and 2 mM CHAPS. The BSA, DTT, and CHAPS are added to the assay buffer on the day of assay. Using a Multidrop Combi (Thermo Electron Corporation) equipped with a metal tip dispenser, 5 ul of 1.25 nM Keap1 FlagHis protein is added to all wells of the compound plate, with the exception of the wells in column 18. Wells in column 18 receive 5 ul of assay buffer instead. Plates are centrifuged at 500 rpm for 1 minute, covered with a plate lid, and incubated at 37° C. for 2.25 hours. Plates are then removed from the incubator and allowed to cool to RT for 15 minutes. Five microliters of 2.5 nM biotin-NRF2 protein is then added to all wells of the plates and the plates are spun at 500 rpm for 1 minute, followed by incubating at 4° C. for 1.25 hours. The plates are then allowed to warm to RT for 15 minutes, followed by the addition of 10 ul of detection mix (1 nM Streptavidin Eu+ W1024 and 5 ug/ml mouse anti-DYKDDDDK IgG conjugated to SureLight APC antibody; both from Columbia Biosciences) to all wells. Plates are spun at 500 rpm for 1 minute, incubated for 1 hour at RT, and read on an Envision plate reader using a 320 nm excitation filter and 615 nm and 665 nm emission filters. Compound response (% inhibition) and potency (pIC50) are calculated based on the ratio of the two emissions (665 nm/615 nm) and then the transformed data is normalized against controls in the assay (control 1=1% DMSO in the presence of NRF2 and Keap1 protein and control 2=1% DMSO in the presence of only the NRF2 protein). Data analysis is handled using the software package Abase XE (Surrey, United Kingdom). The % inhibition values are calculated from the ratio (transformed) data by the equation: 100−(100*(compound response-average control 2)/(average control 1−average control 2)). For calculation of pIC50s, Abase XE uses a four parameter equation.
(TR-FRET usually uses a lanthanide donor and a delayed reading to cut background.)

SMILES strings stand for the structures. Counter-ions that a name gives are not always drawn. Some results are limits rather than exact numbers.

T1 sequence (Q14145 321-609): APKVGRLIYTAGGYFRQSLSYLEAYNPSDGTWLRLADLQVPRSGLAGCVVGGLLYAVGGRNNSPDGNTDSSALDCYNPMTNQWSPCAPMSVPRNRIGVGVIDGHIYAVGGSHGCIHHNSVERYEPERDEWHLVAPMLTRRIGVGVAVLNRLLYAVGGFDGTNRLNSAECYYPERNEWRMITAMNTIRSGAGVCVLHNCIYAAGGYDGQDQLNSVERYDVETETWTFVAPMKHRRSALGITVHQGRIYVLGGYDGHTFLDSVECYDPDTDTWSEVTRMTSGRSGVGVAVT
T2 sequence (Q14145 whole entry): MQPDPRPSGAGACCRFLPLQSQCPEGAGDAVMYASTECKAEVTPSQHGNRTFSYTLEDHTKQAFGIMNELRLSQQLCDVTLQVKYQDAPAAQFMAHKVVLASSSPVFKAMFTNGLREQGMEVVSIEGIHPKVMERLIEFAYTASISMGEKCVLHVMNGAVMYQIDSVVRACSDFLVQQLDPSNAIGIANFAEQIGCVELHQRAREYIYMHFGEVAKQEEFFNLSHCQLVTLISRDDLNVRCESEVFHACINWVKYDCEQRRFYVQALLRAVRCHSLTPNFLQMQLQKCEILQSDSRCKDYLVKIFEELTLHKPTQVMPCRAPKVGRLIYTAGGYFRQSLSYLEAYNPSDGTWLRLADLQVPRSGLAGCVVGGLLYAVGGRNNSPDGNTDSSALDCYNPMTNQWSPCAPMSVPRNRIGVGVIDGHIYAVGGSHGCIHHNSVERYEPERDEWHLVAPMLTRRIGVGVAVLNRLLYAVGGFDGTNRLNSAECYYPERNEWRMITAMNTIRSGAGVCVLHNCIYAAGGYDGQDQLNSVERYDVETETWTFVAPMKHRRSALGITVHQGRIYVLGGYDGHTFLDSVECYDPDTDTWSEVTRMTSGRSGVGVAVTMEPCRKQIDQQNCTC

By IC50 is commonly meant the concentration that gives 50% inhibition. In general, EC50 refers to the concentration needed to bring the measured effect to its halfway point. Higher therefore signals weaker potency. Turning to `Cn1cc([C@@H]2C[C@H]2c2c(C(=O)O)cnn2-c2cccc(C3CCCN(C(=O)OC(C)(C)C)C3)c2)nn1` (stereo partly drawn) [Example 26, 1-(3-(1-(tert-butoxycarbonyl)piperidin-3-yl)phenyl)-5-((1R,2R)-2-(1-methyl-1H-1,2,3-triazol-4-yl)cyclopropyl)-1H-pyrazole-4-carboxylic Acid], the IC50 at Keap1/NRF2 and against NRF2/Keap1 was 0.01 to 0.1 µM each time. The compound also showed an EC50 in assay [1] of 1 to 10 µM.

For the compound `CC(C)(C)OC(=O)N1CCCC(c2cccc(-n3ncc(C(=O)O)c3C3CC3)c2)C1` (stereo not drawn) [Example 27, 1-(3-(1-(tert-Butoxycarbonyl)piperidin-3-yl)phenyl)-5-cyclopropyl-1H-pyrazole-4-carboxylic Acid], the IC50 at Keap1/NRF2 is over 10 µM; at NRF2/Keap1 it was 1 to 10 µM. The same compound displayed a concentration giving a half-maximal response (EC50) in assay [1] of 1 to 10 µM.

For the compound `O=C(O)c1cnn(-c2cccc(C3CCCN(CC4CCCCC4)C3)c2)c1C1CC1` (stereo not drawn) [Example 28, 1-(3-(1-(cyclohexylmethyl)piperidin-3-yl)phenyl)-5-cyclopropyl-1H-pyrazole-4-carboxylic Acid, Hydrochloride], the IC50 against Keap1/NRF2 is over 10 µM; on NRF2/Keap1, 1 to 10 µM. This compound came in with an EC50 in assay [1] of 1 to 10 µM.

With `Cn1cc([C@@H]2C[C@H]2c2c(C(=O)O)cnn2-c2cccc(C3CCCN(CCc4ccccc4)C3)c2)nn1` (stereo partly drawn) [Example 29, 5-((1R,2R)-2-(1-Methyl-1H-1,2,3-triazol-4-yl)cyclopropyl)-1-(3-(1-phenethylpiperidin-3-yl)phenyl)-1H-pyrazole-4-carboxylic Acid, Hydrochloride], the results for the IC50 against Keap1/NRF2 and on NRF2/Keap1 were 0.1 to 1 µM and 0.01 to 0.1 µM, respectively. This compound gave an EC50 in assay [1] of 1 to 10 µM.

As for `Cn1cc([C@@H]2C[C@H]2c2c(C(=O)O)cnn2-c2cccc(C3CCCN(S(=O)(=O)c4ccccc4)C3)c2)nn1` (stereo partly drawn) [Example 30, 5-((1R,2R)-2-(1-methyl-1H-1,2,3-triazol-4-yl)cyclopropyl)-1-(3-(1-(phenylsulfonyl)piperidin-3-yl)phenyl)-1H-pyrazole-4-carboxylic Acid], the figures for the IC50 against Keap1/NRF2 and at NRF2/Keap1 were 0.01 to 0.1 µM and under 0.01 µM, respectively. Also, the EC50 in assay [1] fell in the range of 1 to 10 µM.

Consider `Cn1cc([C@@H]2C[C@H]2c2c(C(=O)O)cnn2-c2cccc(C3CCCN(C(=O)CC4CCCCC4)C3)c2)nn1` (stereo partly drawn) [Example 31, 1-(3-(1-(2-cyclohexylacetyl)piperidin-3-yl)phenyl)-5-((1R,2R)-2-(1-methyl-1H-1,2,3-triazol-4-yl)cyclopropyl)-1H-pyrazole-4-carboxylic Acid], for which the IC50 was in the range of 0.1 to 1 µM at Keap1/NRF2 and 0.01 to 0.1 µM on NRF2/Keap1. In assay [1], the EC50 is 0.1 to 1 µM.

For the compound `Cn1cc([C@@H]2C[C@H]2c2c(C(=O)O)cnn2-c2cccc(C3CCCN(C(=O)C(C)(C)C)C3)c2)nn1` (stereo partly drawn) [Example 32, 5-((1R,2R)-2-(1-methyl-1H-1,2,3-triazol-4-yl)cyclopropyl)-1-(3-(1-pivaloylpiperidin-3-yl)phenyl)-1H-pyrazole-4-carboxylic Acid], the IC50 against Keap1/NRF2 and at NRF2/Keap1 was 0.01 to 0.1 µM in each case. In addition, the EC50 in assay [1] lay within 0.1 to 1 µM.

Turning to `Cn1cc([C@@H]2C[C@H]2c2c(C(=O)O)cnn2-c2cccc(C3CCCN(C(=O)c4ccccc4)C3)c2)nn1` (stereo partly drawn) [Example 33, 1-(3-(1-benzoylpiperidin-3-yl)phenyl)-5-((1R,2R)-2-(1-methyl-1H-1,2,3-triazol-4-yl)cyclopropyl)-1H-pyrazole-4-carboxylic Acid], the figures for the IC50 on Keap1/NRF2 and against NRF2/Keap1 were 0.1 to 1 µM and 0.01 to 0.1 µM, respectively. This compound registered an EC50 in assay [1] of 1 to 10 µM.

With `CCC[C@@H]1CCCCN1C(=O)N1CCCC(c2cccc(-n3ncc(C(=O)O)c3[C@@H]3C[C@H]3c3cn(C)nn3)c2)C1` (stereo partly drawn) [Example 34, 5-((1R,2R)-2-(1-Methyl-1H-1,2,3-triazol-4-yl)cyclopropyl)-1-(3-(1-((R)-2-propylpiperidine-1-carbonyl)piperidin-3-yl)phenyl)-1H-pyrazole-4-carboxylic Acid], the IC50 lay within 0.1 to 1 µM on Keap1/NRF2 and 0.01 to 0.1 µM against NRF2/Keap1. Besides, the EC50 in assay [1] fell in the range of 1 to 10 µM.

Values taken from patent US10351530B2, “Arylcyclohexyl pyrazoles as NRF2 regulators” (GlaxoSmithKline Intellectual Property Development Limited, priority 2015, dated 2019).
